According to publication PMC6127211, “The DnaA AAA+ Domain His136 Residue Directs DnaB Replicative Helicase to the Unwound Region of the Replication Origin, oriC” (Frontiers in Microbiology, 2018):
Residue numbers refer to the chain shown, from its start. In names and notes the source's numbering stands. Where two headings read alike, the source gives them in different places.

Tests used:
[1] = target: T1, DnaA (wild-type DnaA) (Escherichia coli, UniProt P03004); experiment: nucleotide binding to purified DnaA (method not described)
T1 construct: full-length wild-type DnaA, overproduced from pKA234 (arabinose-inducible pING derivative) in E. coli KA450 and purified; no tag mentioned
T1 sequence (P03004 1-467): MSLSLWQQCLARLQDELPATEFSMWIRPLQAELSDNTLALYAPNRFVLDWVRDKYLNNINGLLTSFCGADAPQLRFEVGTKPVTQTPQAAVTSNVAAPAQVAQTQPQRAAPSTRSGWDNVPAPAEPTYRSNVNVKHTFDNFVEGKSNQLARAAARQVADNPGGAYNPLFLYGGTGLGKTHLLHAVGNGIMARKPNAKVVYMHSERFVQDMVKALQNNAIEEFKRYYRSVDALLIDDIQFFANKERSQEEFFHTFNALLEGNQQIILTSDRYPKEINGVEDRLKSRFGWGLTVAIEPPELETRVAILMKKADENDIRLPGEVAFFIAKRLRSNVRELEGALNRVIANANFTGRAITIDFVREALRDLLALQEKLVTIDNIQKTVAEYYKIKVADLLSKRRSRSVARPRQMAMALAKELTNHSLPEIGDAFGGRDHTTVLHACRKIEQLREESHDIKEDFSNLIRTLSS
Text: (§1) nucleotide binding to purified DnaA (method not described) on DnaA (wild-type DnaA)

[2] = target: T2, DnaA (Escherichia coli, UniProt P03004, H136A); experiment: as above
T2 construct: full-length wild-type DnaA, overproduced from pKA234 (arabinose-inducible pING derivative) in E. coli KA450 and purified; no tag mentioned
T2 sequence (P03004 1-467 H136A): T1 sequence (P03004 1-467) with H136A
Text: as §1

[3] = target: T3, DnaB replicative helicase (E. coli, UniProt P0ACB0 1-471); experiment: pull-down; biotinylated oriC DNA (bio-oriC, 419 bp, 0.1 pmol) incubated on ice for 10 min with 5 pmol ATP-DnaA and different amounts of DnaB in buffer G (20 mM HEPES-KOH pH 7.6, 5 mM magnesium acetate, 1 mM EDTA, 10% glycerol, 0.1% Triton X-100, 4 mM DTT) with 1 mM ATP; recovered with streptavidin-coated beads; washed once with buffer G without KCl; silver staining with quantitative standards; no DnaC; details: both partners purified
T3 construct: DnaB replicative helicase, Escherichia coli; No tag is named for the DnaB of the bio-oriC pull-down; The Form I* assay used His-DnaB and the His-DnaB pull-down used His-DnaB K236A; these forms are named in the readout of the functional rows; also called DnaB helicase

Nc1ncnc2c1ncn2[C@@H]1O[C@H](COP(=O)(O)OP(=O)(O)O)[C@@H](O)[C@H]1O [ADP]
Kd ([1]; read-out: KD (nM) / ADP): 35 nM | Kd ([2]; read-out: KD (nM) / ADP): 50 nM

Nc1ncnc2c1ncn2[C@@H]1O[C@H](COP(=O)(O)OP(=O)(O)OP(=O)(O)O)[C@@H](O)[C@H]1O [ATP]
Kd ([1]; read-out: KD (nM) / ATP): 24 nM | Kd ([2]; read-out: KD (nM) / ATP): 21 nM

B1: wild-type DnaA (natural protein, E. coli, UniProt P03004 1-467, looked up)
chain: T1 sequence (P03004 1-467)
notes: DnaA, chromosomal replication initiator protein, Escherichia coli; wild-type dnaA-coding region of pKA234; also called WT; ATP-DnaA; source: E. coli KA450, overproduced from pKA234, purified
binding result [3]: binds

B2: DnaA H136A (natural protein, E. coli, UniProt P03004 1-467, looked up)
chain: T1 sequence (P03004 1-467) with H136A
notes: DnaA, Escherichia coli, with the substitution H136A in domain III; pH136A is a derivative of pKA234; also called DnaA H136A mutant protein; source: E. coli KA450, overproduced from pH136A, purified
binding result [3]: binds
